Data taken from the Kinase Knowledgebase extract (Sharma et al. 2016).

Columns and labels:
EGFR (Balb/c mice) [1] = biological target: EGFR (Balb/c mice) (UniProt P00533); conditions: balb/mk cells
EGFR (Balb/c mice) [2] = biological target: EGFR (Balb/c mice) (UniProt P00533); conditions: balb/c3t3
EGFR = EGFR (UniProt P00533)
EGFR, sequence (P00533 whole entry, looked up): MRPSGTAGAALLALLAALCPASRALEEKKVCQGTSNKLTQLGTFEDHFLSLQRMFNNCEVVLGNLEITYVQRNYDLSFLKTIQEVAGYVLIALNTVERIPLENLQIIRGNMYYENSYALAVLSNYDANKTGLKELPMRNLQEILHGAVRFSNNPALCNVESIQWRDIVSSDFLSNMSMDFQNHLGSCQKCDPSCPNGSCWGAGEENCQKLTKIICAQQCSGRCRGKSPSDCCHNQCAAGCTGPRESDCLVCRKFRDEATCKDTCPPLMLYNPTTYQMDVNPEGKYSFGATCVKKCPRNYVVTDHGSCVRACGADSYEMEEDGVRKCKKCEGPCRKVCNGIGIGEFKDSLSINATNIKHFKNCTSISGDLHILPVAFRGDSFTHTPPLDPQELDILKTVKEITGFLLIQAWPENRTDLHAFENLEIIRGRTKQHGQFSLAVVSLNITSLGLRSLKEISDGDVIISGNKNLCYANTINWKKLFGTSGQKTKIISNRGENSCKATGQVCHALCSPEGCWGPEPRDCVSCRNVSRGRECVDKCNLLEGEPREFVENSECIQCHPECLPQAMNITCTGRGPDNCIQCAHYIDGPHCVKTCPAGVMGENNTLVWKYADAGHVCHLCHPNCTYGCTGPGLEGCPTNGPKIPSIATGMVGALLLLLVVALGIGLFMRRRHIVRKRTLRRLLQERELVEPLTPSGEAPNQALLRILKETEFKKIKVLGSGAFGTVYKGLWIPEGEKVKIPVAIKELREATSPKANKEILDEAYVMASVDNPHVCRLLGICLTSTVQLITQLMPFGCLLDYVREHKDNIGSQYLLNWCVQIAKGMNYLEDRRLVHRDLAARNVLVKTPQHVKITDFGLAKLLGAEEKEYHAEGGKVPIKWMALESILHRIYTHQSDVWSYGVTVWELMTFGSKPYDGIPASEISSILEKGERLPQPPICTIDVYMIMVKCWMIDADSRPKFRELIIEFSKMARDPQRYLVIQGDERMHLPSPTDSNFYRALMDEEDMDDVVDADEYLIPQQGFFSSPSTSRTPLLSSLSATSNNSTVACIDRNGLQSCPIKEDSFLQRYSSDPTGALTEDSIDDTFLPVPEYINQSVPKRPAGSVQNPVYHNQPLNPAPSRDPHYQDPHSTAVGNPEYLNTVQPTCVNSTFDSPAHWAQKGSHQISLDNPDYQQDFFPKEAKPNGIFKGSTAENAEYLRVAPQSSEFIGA

SMILES	IC50 (EGFR (Balb/c mice) [1])	IC50 (EGFR (Balb/c mice) [2])	IC50 (EGFR)
Clc1cccc(Nc2ncnc3[nH]c(-c4nnn[nH]4)cc23)c1	100 to 1000 nM	1 to 100 nM	0.5 to 1000 nM
Clc1cccc(Nc2ncnc3[nH]c(-c4cccc(N=CN5CCOCC5)c4)cc23)c1	100 to 1000 nM	1 to 100 nM	0.5 to 1000 nM
C[C@@H](Nc1ncnc2[nH]c(-c3cccc(NS(C)(=O)=O)c3)cc12)c1ccccc1	100 to 1000 nM	1 to 100 nM	0.5 to 1000 nM
COc1ccc(-c2csc(-c3cc4c(Nc5cccc(Cl)c5)ncnc4[nH]3)n2)cc1	100 to 1000 nM	1 to 100 nM	0.5 to 1000 nM
CCN(C=Nc1ccc(-c2cc3c(Nc4cccc(Cl)c4)ncnc3[nH]2)cc1)CC	100 to 1000 nM	1 to 100 nM	0.5 to 1000 nM
CC(C)S(=O)(=O)Nc1cccc(-c2cc3c(Nc4cccc(Cl)c4)ncnc3[nH]2)c1	100 to 1000 nM	1 to 100 nM	0.5 to 1000 nM
CC(C)S(=O)(=O)Nc1ccc(-c2cc3c(Nc4cccc(Cl)c4)ncnc3[nH]2)cc1	100 to 1000 nM	1 to 100 nM	0.5 to 1000 nM
CNC(=S)Nc1ccc(-c2cc3c(N[C@H](C)c4ccccc4)ncnc3[nH]2)cc1	100 to 1000 nM	1 to 100 nM	0.5 to 1000 nM
CCOC(=O)Nc1ccc(-c2cc3c(Nc4cccc(Cl)c4)ncnc3[nH]2)cc1	100 to 1000 nM	1 to 100 nM	0.5 to 1000 nM
O=S(=O)(Nc1ccc(-c2cc3c(Nc4cccc(Cl)c4)ncnc3[nH]2)cc1)c1ccccc1	100 to 1000 nM	1 to 100 nM	0.5 to 1000 nM
CN1CCN(C=Nc2ccc(-c3cc4c(Nc5cccc(Cl)c5)ncnc4[nH]3)cc2)CC1	100 to 1000 nM	1 to 100 nM	0.5 to 1000 nM
ON=Cc1cc2c(Nc3cccc(Cl)c3)ncnc2[nH]1	100 to 1000 nM	1 to 100 nM	0.5 to 1000 nM
O=C(Nc1ccc(-c2cc3c(Nc4cccc(Cl)c4)ncnc3[nH]2)cc1)c1ccco1	100 to 1000 nM	1 to 100 nM	0.5 to 1000 nM
CNC(=S)Nc1cccc(-c2cc3c(Nc4cccc(Cl)c4)ncnc3[nH]2)c1	100 to 1000 nM	1 to 100 nM	0.5 to 1000 nM
O=C(Nc1ccc(-c2cc3c(Nc4cccc(Cl)c4)ncnc3[nH]2)cc1)c1cccs1	100 to 1000 nM	1 to 100 nM	0.5 to 1000 nM
CN1CCN(Cc2cc3c(Nc4cccc(Cl)c4)ncnc3[nH]2)CC1	100 to 1000 nM	1 to 100 nM	0.5 to 1000 nM
CC(C)OC(=O)Nc1ccc(-c2cc3c(Nc4cccc(Cl)c4)ncnc3[nH]2)cc1	100 to 1000 nM	1 to 100 nM	0.5 to 1000 nM
CS(=O)(=O)Nc1cccc(-c2cc3c(Nc4cccc(Cl)c4)ncnc3[nH]2)c1	100 to 1000 nM	1 to 100 nM	0.5 to 1000 nM
COc1ccc(CNCc2cc3c(Nc4cccc(Cl)c4)ncnc3[nH]2)cc1	100 to 1000 nM	1 to 100 nM	0.5 to 1000 nM
CC(C)C(=Nc1ccc(-c2cc3c(Nc4cccc(Cl)c4)ncnc3[nH]2)cc1)N(C)C	100 to 1000 nM	1 to 100 nM	0.5 to 1000 nM
Clc1cccc(Nc2ncnc3[nH]c(CN4CCOCC4)cc23)c1	100 to 1000 nM	1 to 100 nM	0.5 to 1000 nM
Cc1nc(-c2cc3c(Nc4cccc(Cl)c4)ncnc3[nH]2)sc1C	100 to 1000 nM	1 to 100 nM	0.5 to 1000 nM
CC(C)S(=O)(=O)Nc1cccc(-c2cc3c(N[C@H](C)c4ccccc4)ncnc3[nH]2)c1	100 to 1000 nM	1 to 100 nM	0.5 to 1000 nM
CS(=O)(=O)Nc1ccc(-c2cc3c(Nc4cccc(Cl)c4)ncnc3[nH]2)cc1	100 to 1000 nM	1 to 100 nM	0.5 to 1000 nM
C[C@@H](Nc1ncnc2[nH]c(-c3ccc(N=CN(C)C)cc3)cc12)c1ccccc1	100 to 1000 nM	1 to 100 nM	0.5 to 1000 nM
O=C(Nc1ccccc1)Nc1cccc(-c2cc3c(Nc4cccc(Cl)c4)ncnc3[nH]2)c1	100 to 1000 nM	1 to 100 nM	0.5 to 1000 nM

SMILES	IC50 (EGFR (Balb/c mice) [1])	IC50 (EGFR (Balb/c mice) [2])	IC50 (EGFR)
OCCN(CCO)Cc1cc2c(Nc3cccc(Cl)c3)ncnc2[nH]1	100 to 1000 nM	1 to 100 nM	0.5 to 1000 nM
CC(C)COC(=O)Nc1ccc(-c2cc3c(Nc4cccc(Cl)c4)ncnc3[nH]2)cc1	100 to 1000 nM	1 to 100 nM	0.5 to 1000 nM
Clc1cccc(Nc2ncnc3[nH]c(-c4ccc(N=CN5CCOCC5)cc4)cc23)c1	100 to 1000 nM	1 to 100 nM	0.5 to 1000 nM
COc1cc(-c2cc3c(Nc4cccc(Cl)c4)ncnc3[nH]2)ccc1O	100 to 1000 nM	1 to 100 nM	0.5 to 1000 nM
CC(C)S(=O)(=O)Nc1ccc(-c2cc3c(N[C@H](C)c4ccccc4)ncnc3[nH]2)cc1	100 to 1000 nM	1 to 100 nM	0.5 to 1000 nM
C[C@@H](Nc1ncnc2[nH]c(-c3cccc(NCc4ccccc4)c3)cc12)c1ccccc1	100 to 1000 nM	1 to 100 nM	0.5 to 1000 nM
COc1cc(-c2cc3c(Nc4cccc(C)c4)ncnc3[nH]2)ccc1O	100 to 1000 nM	1 to 100 nM	0.5 to 1000 nM
CCS(=O)(=O)Nc1cccc(-c2cc3c(Nc4cccc(Cl)c4)ncnc3[nH]2)c1	100 to 1000 nM	1 to 100 nM	0.5 to 1000 nM
Clc1cccc(Nc2ncnc3[nH]c(-c4ccc(N=CN5CCCCC5)cc4)cc23)c1	100 to 1000 nM	1 to 100 nM	0.5 to 1000 nM
CCN(C=Nc1cccc(-c2cc3c(Nc4cccc(Cl)c4)ncnc3[nH]2)c1)CC	100 to 1000 nM	1 to 100 nM	0.5 to 1000 nM
CCNC(=O)Nc1cccc(-c2cc3c(N[C@H](C)c4ccccc4)ncnc3[nH]2)c1	100 to 1000 nM	1 to 100 nM	0.5 to 1000 nM
CCNC(=O)Nc1cccc(-c2cc3c(Nc4cccc(Cl)c4)ncnc3[nH]2)c1	100 to 1000 nM	1 to 100 nM	0.5 to 1000 nM
COc1cc(-c2cc3c(Nc4cccc(C)c4)ncnc3[nH]2)ccc1OCc1ccccc1	100 to 1000 nM	1 to 100 nM	0.5 to 1000 nM
Cn1nnc(-c2cc3c(Nc4cccc(Cl)c4)ncnc3[nH]2)n1.Cn1nnnc1-c1cc2c(Nc3cccc(Cl)c3)ncnc2[nH]1	100 to 1000 nM	1 to 100 nM	0.5 to 1000 nM
COc1ccc(-c2cc3c(N[C@H](C)c4ccccc4)ncnc3[nH]2)cc1	100 to 1000 nM	1 to 100 nM	0.5 to 1000 nM
CCNC(=S)Nc1ccc(-c2cc3c(Nc4cccc(Cl)c4)ncnc3[nH]2)cc1	100 to 1000 nM	1 to 100 nM	0.5 to 1000 nM
COC(=O)Nc1ccc(-c2cc3c(Nc4cccc(Cl)c4)ncnc3[nH]2)cc1	100 to 1000 nM	1 to 100 nM	0.5 to 1000 nM
COc1cc(-c2cc3c(Nc4cccc(Cl)c4)ncnc3[nH]2)ccc1OCc1ccccc1	100 to 1000 nM	1 to 100 nM	0.5 to 1000 nM
CN(C)C=Nc1ccc(-c2cc3c(Nc4cccc(Cl)c4)ncnc3[nH]2)cc1	100 to 1000 nM	1 to 100 nM	0.5 to 1000 nM
C[C@@H](Nc1ncnc2[nH]c(-c3cccc(N=CN(C)C)c3)cc12)c1ccccc1	100 to 1000 nM	1 to 100 nM	0.5 to 1000 nM
CCS(=O)(=O)Nc1ccc(-c2cc3c(Nc4cccc(Cl)c4)ncnc3[nH]2)cc1	100 to 1000 nM	1 to 100 nM	0.5 to 1000 nM
C[C@@H](Nc1ncnc2[nH]c(-c3ccc(NS(C)(=O)=O)cc3)cc12)c1ccccc1	100 to 1000 nM	1 to 100 nM	0.5 to 1000 nM
OCc1ccc(-c2cc3c(Nc4cccc(Cl)c4)ncnc3[nH]2)cc1	100 to 1000 nM	1 to 100 nM	0.5 to 1000 nM
CN1CCN(C(=O)c2ccc(-c3cc4c(Nc5cccc(Cl)c5)ncnc4[nH]3)cc2)CC1	100 to 1000 nM	1 to 100 nM	0.5 to 1000 nM
Clc1cccc(Nc2ncnc3[nH]c(-c4nccs4)cc23)c1	100 to 1000 nM	1 to 100 nM	0.5 to 1000 nM
Oc1ccc(CNCc2cc3c(Nc4cccc(Cl)c4)ncnc3[nH]2)cc1	100 to 1000 nM	1 to 100 nM	0.5 to 1000 nM
